Several values for one entry are separate records, joined by “and”; a condition that tells them apart may be missing. Equal entries are not always repeated.
Experiments:
human CD44 3'-UTR = test: CD44 3'-UTR luciferase reporter assay; assay type: cell-based; conditions: Du145 cells
Procedure: FIGS. 3A-3J show partial suppression of epithelial to mesenchymal transition by miR-141 and CD44 as a direct target of miR-141. FIGS. 3A-3B show qPCR analysis of epithelial to mesenchymal transition markers in bulk (FIG. 3A) or CD44^+ (FIG. 3B) Du145 cells transfected with the miR-141 oligos (30 nM; 48 h). Results were presented as the relative expression levels over the cells transfected with the NC oligos. […] GAPDH was used as control and the relative protein levels after normalizing to GAPDH and NC controls were indicated below each lane. […] Shown below is the actual sequence in the region with the mutated miR-141 binding sequence indicated in grey (below). […] Shown are representative images. […] Du145 cells were co-transfected with NC or miR-141 oligos (30 nM) together with pBabe empty vector or pBabe-CD44 vector. After 48 h, cells were harvested for invasion assays. […]
The human CD44 3′-UTR was amplified from Du145 genomic DNA using primers 5′-[…]-3′ (SEQ ID NO: 2) and 5′-[…]-3′ (SEQ ID NO: 3), as previously described (13). […] The luciferase activities were detected using Duo-luciferase reporter assay system (Promega). Human RAC1, CDC42, CDC42EP3, and ARPC5 3′-UTR luciferase reporter constructs were obtained from SwitchGear Genomics (Menlo Park, Calif.) and luciferase activities were measured per the manufacturer's instructions using LightSwitch luciferase assay kit.

Du145 cells = test: Whole-genome RNA-Seq; assay type: cell-based, human
Procedure: (§1) Du145 and LAPC9 cells were transfected with 30 nM of miR-141 or negative control oligos for 48 h. Total RNA was purified using RNeasy mini kit (Qiagen, Hilden, Germany). The overexpression of miR-141 was validated by qPCR. 100 ng of total RNA samples was then converted to cDNA using a NuGEN Ovation RNA-Seq System v2 according to the manufacturer's protocol (NuGEN, San Carlos, Calif.). NuGEN-amplified double-stranded cDNAs were fragmented into ˜180 base pair (bp) using a Covaris system (Covaris, Woburn, Mass.). Fragmented cDNAs were run on a SPRI-TE library construction system (Beckman Coulter, Fullerton, Calif.), and during the adaptor ligation step, uniquely indexed NEXTflex adapters (Bioo Scientific, Austin, Tex.) were used for each of the samples to allow for multiplexing. Adapter-ligated libraries were enriched by PCR using a KAPA library amplification kit (KAPA Biosystems, Wilmington, Mass.) (1 cycle at 98° C. for 45 seconds; 7 cycles at 98° C. for 15 seconds, 65° C. for 30 seconds, and 72° C. for 30 seconds; 1 cycle at 72° C. for 1 minute), and purified with AMPureXP beads (Beckman Coulter, Pasadena, Calif.). The purified libraries were quantified using a KAPA library quantification kit. The libraries were loaded on cBot (Illumina, San Diego, Calif.) at final concentration of […] to perform cluster generation, followed by 2×76 bp sequencing on HiSeq 2000 (Illumina, San Diego, Calif.).
(§2) Sequencing reads were mapped to reference human genome sequence ([…] [hg19] assembly by TopHat (Version 2.0.6). The number of fragments in each known gene from RefSeq database (downloaded from UCSC Genome Browser on Mar. 9, 2012) was enumerated using htseq-count from HTSeq package (version 0.5.4p9). Genes with less than 10 fragments in all the samples were removed before differential expression analysis. The differential expression between conditions was statistically assessed by R/Bioconductor package edgeR (version 3.0.8). Genes with FDR (false discovery rate) of ≤0.05 and >200 bp were called as differentially expressed.
(§3) For Gene Ontology (GO) analysis, IPA (Ingenuity Pathway Analysis; Qiagen, Valencia, Calif.) and GSEA (Gene Set Enrichment Analysis; Broad Institute) were performed. The standard procedure was followed (www.broadinstitute.org/gsea/doc/GSEAUserGuideFrame.html) as described by GSEA user guide and used curated gene set C2 of the Molecular Signature Database (MSigDB) version 4.0 to compute overlaps between gene set and gene sets in MSigDB. Some of the datasets presented in the text are annotated here.
(§4) The authors' in-house scripts (12) was utilized for sequence alignment and peak calling. The miR-200a CLIP-Seq results containing the binding information were further extracted and merged with Du145 or LAPC9 RNA-Seq data by gene symbol.

LAPC9 cells = test: Whole-genome RNA-Seq; assay type: cell-based, human
Procedure: as §1, §2, §3, §4

[1] = merged with miR-200a CLIP-Seq data

miR-141: miR-141 mirVana mimics (Life Technologies); microRNA-141 oligonucleotide may have SEQ ID NO: 1; in some experiments over-expressed by lentiviral vectors (UAACACUGUCUGGUAAAGAUGG; listed as RNA, further chemistry not given here) [miR-141 mirVana mimics (Life Technologies); in some experiments over-expressed by lentiviral vectors]
luciferase activity, CD44 3'-UTR with mutated miR-141 binding sequence (human CD44 3'-UTR): abrogated the suppressive effect of miR-141
luciferase activity, wild-type CD44 3'-UTR reporter (human CD44 3'-UTR; vs negative control oligos): lower
TGFB2, ZEB1, MAP2K4, and VIM expression (Du145 cells): downregulated
ZEB2, TWIST2, and SANI2 expression (Du145 cells): inconsistent changes
epithelial markers including E-Cadherin, Claudin family members and cytokeratins (KRT) (Du145 cells): strongly induced
down-regulated genes (Du145 cells; FDR<0.05): 949
up-regulated genes (Du145 cells; FDR<0.05): 1,304
transcripts having binding sites to miR-200a/miR-141 (Du145 cells; RNA-Seq DEGs merged with miR-200a CLIP-Seq data): 532
down-regulated transcripts having binding sites to miR-200a/miR-141 (Du145 cells; [1]): 263
upregulated transcripts having binding sites to miR-200a/miR-141 (Du145 cells; [1]): 269
TGFB2, ZEB1, MAP2K4, VIM, NYH10, FN1 and many other mesenchymal genes (LAPC9 cells): downregulated
epithelial markers including E-Cadherin, Claudin members and KRTs (LAPC9 cells): prominently upregulated
down-regulated genes (LAPC9 cells; FDR<0.05): 459
up-regulated genes (LAPC9 cells; FDR<0.05): 265
putative direct targets of miR-141 (genes) (LAPC9 cells; RNA-Seq merged with miR-200a CLIP-Seq data): 157 and ~150

— US10202604B2, “Methods of using microRNA-141” (Stemirna Therapeutics Co., Ltd., priority 2016, dated 2019)
